The results in this text go back to paper PMC5584254, “Identification of novel small molecule Beclin 1 mimetics activating autophagy” (Oncotarget, 2017).

Counter-ions that a name gives are not always drawn.

Assay [1] deals with T1, Bcl-xL-Beclin 1 20-mer complex (Homo sapiens, UniProt Q07817).
T1 construct: made in house
Nature of the assay: FP competitive binding assay (disruption of Bcl-xL-20-mer complex). To be noted: 2.5 μM Bcl-xL protein, 400 nM fluorescein-labeled 20-mer. As for the experimental part: Figure 1 FP-based HTS for Beclin 1 mimetics (A) Schematic presentation of the Beclin 1 protein and sequences of five synthetic peptides modified from Beclin 1 BH3 peptide. Diagram of human Beclin 1 protein with different domains is shown in the bottom. BH3 domain is necessary and sufficient for interaction with Bcl-2/Bcl-xL. Amino acids in red are the critical residues for the binding. (B) Five fluorescein-labeled Beclin 1 BH3 peptides were tested for their binding ability to Bcl-xL protein in FP assay. Fluorescein-labeled Bak BH3 peptide was used as a positive control. Bcl-xL protein was titrated to a solution of 50 nM peptides. (C) Competitive binding assay with positive controls, ABT-263 and (–)-gossypol ((–)G). […] (D–E) HTS was performed with ~50000 compounds from Prestwick, Microsource, CMLD and Chembridge libraries. The four libraries were divided into two groups and screened separately. Compounds activity (percent of inhibition) of first screen (D) and second screen (E) were shown with Z′ value indicated on top. Plate median + 3SD was used as a threshold to determine the initial hits.
Bcl-xL protein was immobilized on the sensor chip with 10000 RU.
All N′-fluorescein-labeled peptides were purchased from Kansas State University (Manhattan, KS). […] 16mer Bak ([…]) sequence was from published literature. Bcl-xL protein (25 kDa, > 90% pure based on SDS–PAGE) was expressed and purified in Protein Product Group, University of Kansas. FP assays were carried out as described in our previous publication with some modified. […] Then, fluorescein-labeled peptide was added to each well with a final concentration of 50 nM and incubated at room temperature for 30 min. Anisotropy measurements were taken at room temperature using a BioTek Synergy H4 plate reader (Biotek, Winooski, VT) following the protocol recommended by the manufacture. The Kd was estimated by nonlinear regression to a one-site binding model using GraphPad Prism 5.0 (GraphPad, San Diego, CA). […] Compound solvent DMSO only was used as a negative control in the competition assay. After 2 h incubation, the plate was read and polarization was calculated.

For a further assay, the system named is DU145. The experiment in a line: MTT-based cytotoxicity assay, DU145. The following applies: Homo sapiens, DU-145, averages of at least two independent experiments, read-out: Cytotoxicity in different cell lines (IC50, μM) DU145. From the text:
(§1) Human prostate cancer cell lines PC-3 and DU145, were purchased from American Type Culture Collection (ATCC) and used within 50 passages. PC-3a is a derivative of PC-3 that is resistant to chemo/radiotherapy, established in our lab and confirmed by genotyping. All cells were maintained in DMEM (Mediatech, Manassas, VA) supplemented with 10% fetal bovine serum (FBS) (Sigma-Aldrich, St. Louis, MO), 1% Glutamine (Mediatech, Manassas, VA), 1% antibiotics (Mediatech, Manassas, VA). Compounds for primary FP-based HTS screening were from Prestwick, Microsource, University of Kansas Center of Excellence in Chemical Methodologies & Library Development (KU CMLD, Lawrence, KS), and Chembridge libraries. Compounds for MTT and SPR validation experiment were purchased from Microsource (Gaylordsville, CT) and Hit2lead Company (San Diego, CA). Acridine analogues, compound 1–6, were from our in-house library (provided by Specialized Chemistry Center, University of Kansas, Lawrence, KS); compound 7–17 were synthesized as described in supplementary information. (–)-Gossypol was isolated from racemic gossypol as we previously described. ABT-263 and DMSO were purchased from Sigma. MTT-based cytotoxicity assay and western blot analysis was carried out according to our previous publications. The primary antibodies used were LC3B (#2775) (Cell signaling Technology, Danvers, MA) and β-actin (A5441) (Sigma).
A general note: Tetrazolium dyes change colour on reduction, which living cells bring about.

A further assay has as its system PC-3a. The experiment in a line: MTT-based cytotoxicity assay, PC-3a. To be noted: Homo sapiens, averages of at least two independent experiments, read-out: Cytotoxicity in different cell lines (IC50, μM) PC-3a.
Source text: as §1

The next assay has as its system PC-3. The experiment in a line: MTT-based cytotoxicity assay, PC-3. The following applies: Homo sapiens, averages of at least two independent experiments, read-out: Cytotoxicity in different cell lines (IC50, μM) PC-3.
Source text: as §1

A further assay concerns the target T2, Bcl-xL protein (Homo sapiens, UniProt Q07817).
T2 construct: made in house
The experiment in a line: Surface plasmon resonance assay, immobilized Bcl-xL. In kind it is binding. To be noted: SPR; 10 μM compound; Bcl-xL immobilized 10000 RU. On the procedure:
The surface plasmon resonance experiments were performed using a Biacore 3000 (GE Healthcare Pittsburgh, PA) equipped with a research-grade CM5 sensor chip. The ligand (Bcl-xL) was immobilized using amine-coupling chemistry. The surfaces of flow cells on a Biacore sensor chip CM5 were activated for 7 min with a 1:1 mixture of 0.1 M NHS (N-hydroxysuccinimide) and 0.1 M EDC (3-(N,N-dimethylamino) propyl-N-ethylcarbodiimide) at a flow rate of 5 μL/min. The ligand (Bcl-xL) at a concentration of 180 μg/mL in 10 mM sodium acetate, pH 4.5, was immobilized at a density of about 10000 RU on flow cell 2; the ligand (SUMO-Bcl-2, 37.5 kDa, > 90% pure based on SDS–PAGE) at a concentration of 44 μg/ml in 10 mM sodium acetate, pH 4.5, was immobilized at a density of 10000 RU on flow cell 3; flow cell 1 was left blank to serve as a reference surface. All the surfaces were blocked with a 7 min injection of 1 M ethanolamine, pH 8.0.
For kinetic analysis, a concentration series of analyte were injected over the flow cells at a flow rate of 60 μL/min at 20 °C. The complex was allowed to associate and dissociate for 120 and 180 s, respectively. For binding studies, analyte (or test compound) was injected over the two flow cells in duplicate at indicated concentration at a flow rate of 60 μL/min at 20 °C. The running buffer consisted of 20 mM HEPES, 150 mM NaCl, 3 mM EDTA, 1 mM DTT, 0.05% P20, 5% DMSO, pH 7.4. The complex was allowed to associate and dissociate for 120 and 180 s, respectively. The buffer samples containing a range of 4–6% DMSO were injected at the beginning, used for solvent correction. The surfaces were regenerated between binding cycles with a 5 s injection of 5 mM NaOH for compounds and 10 mM Glycine pH 2.5 for 20-mer.
All measurements were taken with flow cell 1 as a reference (i.e. sensorgram depicts “2–1 correction”) and corrected for DMSO bulk differences via the calibration curves. To obtain kinetic rate constants (Ka and Kd), corrected response data were fit to a simple 1:1 interaction model using local fit (includes correction for mass transport limitations) available within Biaevaluation 3.1 software or Scrubber2 software. The equilibrium dissociation constant (KD) was determined by Kd/Ka.
A general note: In SPR one partner is held on a chip, and binding of the other changes the refractive index at the surface.

T1 sequence (Q07817 whole entry, one chain of several): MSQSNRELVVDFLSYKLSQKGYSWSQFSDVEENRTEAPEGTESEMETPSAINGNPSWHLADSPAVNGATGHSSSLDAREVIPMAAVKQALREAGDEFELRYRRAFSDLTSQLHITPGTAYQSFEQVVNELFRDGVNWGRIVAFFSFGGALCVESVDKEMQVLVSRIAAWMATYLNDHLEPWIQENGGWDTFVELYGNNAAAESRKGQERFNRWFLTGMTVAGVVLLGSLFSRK
T2 sequence (Q07817 whole entry): as the sequence (Q07817 whole entry, one chain of several) above

By IC50 is commonly meant the concentration needed to halve the response being measured. A word on the Ki: it is the dissociation constant of the complex between target and ligand, obtained from inhibition or displacement. Consider `Nc1ccc2cc3ccc(N)cc3nc2c1` [Compound A13, PROFLAVINE HEMISULFATE], for which the concentration for half-maximal inhibition (IC50) in assay [1] amounted to 4840 nM; in the assay with DU145 it was 0.81 ± 0.51 µM; in the assay with PC-3a, 0.68 ± 0.16 µM; in the assay with PC-3 it was 1.08 ± 0.1 µM. Moreover, the inhibition constant (Ki) in assay [1] stood at 840 nM. Further, the “binding level to Bcl-xL protein in SPR” value at Bcl-xL protein was “could bind to Bcl-xL”.
In the case of `CCOc1ccc2nc3cc(N)ccc3c(N)c2c1` [Compound A15, ETHACRIDINE LACTATE], the 50% inhibitory concentration (IC50) in assay [1] amounted to 102000 nM; in the assay with DU145, 10.5 ± 1.11 µM; in the assay with PC-3a, 2.33 ± 0.99 µM; with PC-3, 1.61 ± 0.42 µM. In assay [1], the inhibition constant (Ki) was found to be 28000 nM. In addition, the “binding level to Bcl-xL protein in SPR” value on Bcl-xL protein is reported as “could bind to Bcl-xL”.
Regarding `CCN(CC)CCCC(C)Nc1c2ccc(Cl)cc2nc2ccc(OC)cc12` (stereo not drawn) [Compound A21, QUINACRINE HYDROCHLORIDE], the IC50 came to 48700 nM in assay [1], 2.31 ± 0.39 µM in the assay on DU145, 0.8 ± 0.12 µM in the assay on PC-3a and 0.77 ± 0.1 µM in the assay with PC-3. The Ki in assay [1] turned out to be 13200 nM. In addition, the “binding level to Bcl-xL protein in SPR” value on Bcl-xL protein was “could bind to Bcl-xL”.
